Literature values, collected in patent publication US7955629B2, “Method of feeding milk replacer with carnitine” (Land O'Lakes Purina Feed LLC, priority 2005, dated 2011).

Columns and labels:
[1] = ten month old steers; 0.6 and 1.2 grams per day; forty two day trial
[2] = not given; remark: listed apart in the source
[3] = not given; remark: listed apart in the source

C[N+](C)(C)CC(O)CC(=O)[O-] (centres unmarked) [carnitine]
effectiveness of carnitine (backfat depths) [1]: inconclusive | average daily gain compared to the control (heifers fed 0.6 and 1.2 grams per day, midpoint of the experiment): statistically significantly greater | average daily weight gain, fed or not fed carnitine (heifers, end of the forty two day experiment): no statistically significant difference | Acetate to proprionate ratios ([2]; mature ruminally cannulated steers): not effected | nitrogen uptake from the rumen ([2]; supplementation at high levels in a high roughage diet): little effect | milk fat content and milk fat yield ([3]; dosed directly into the abomasum): decreased | digestible and metabolized energy from the diet ([3]; dosed directly into the rumen or abomasum): tended to increase | Milk production ([3]; dosed into the rumen or abomasum): not affected
